Here are results for 5 molecules from patent US8449898B2 (priority 2007, dated 2013).

Where two headings read alike, the source gives them in different places.

In assay [1] the test system is Phytophthora infestans (the causal agent of tomato late blight). Description: whole plant or invertebrate. In kind it is in vivo. Conditions: for TLB Obsd (disease control rating): Table B.
The subject of assay [2] is Pseudoperonospora cubensis (the causal agent of cucumber downy mildew). Description: Test B: cucumber downy mildew, preventive spray on cucumber seedlings. Type of assay: in vivo.
Setting [3] is: Table D, component (b) alone at 2 ppm.
The mark [4] stands for this setting: Table D, component (b) alone at 10 ppm.
[5] abbreviates: Table D, component (b) alone at 40 ppm.
[6] abbreviates: Table D, component (b) alone at 200 ppm.
The mark [7] stands for this setting: Table D, component (b) alone at 500 ppm.
[8] abbreviates: component (b) alone 2 ppm (Compound 1 0 ppm).
[9] abbreviates: component (b) alone 10 ppm (Compound 1 0 ppm).
The mark [10] stands for this setting: component (b) alone 40 ppm (Compound 1 0 ppm).
Where [11] appears, read: Table B, component (b) alone 0.4 ppm.
[12] abbreviates: Table B, component (b) alone 2 ppm.
Where [13] appears, read: Table B, component (b) alone 10 ppm.
Where [14] appears, read: Table B, component (b) alone 40 ppm.
The mark [15] stands for this setting: component (b) alone 0.08 ppm (Compound 1 0 ppm).
The mark [16] stands for this setting: component (b) alone 0.4 ppm (Compound 1 0 ppm).
[17] abbreviates: Pseudoperonospora cubensis, component (b) alone 0.4 ppm (Compound 1 0 ppm), read-out: CDM Obsd.
Where [18] appears, read: Pseudoperonospora cubensis, component (b) alone 2 ppm (Compound 1 0 ppm), read-out: CDM Obsd.
The mark [19] stands for this setting: Pseudoperonospora cubensis, component (b) alone 10 ppm (Compound 1 0 ppm), read-out: CDM Obsd.
Where [20] appears, read: Pseudoperonospora cubensis, component (b) alone 40 ppm (Compound 1 0 ppm), read-out: CDM Obsd.

`CC1CCN(c2c(-c3c(F)cc(F)cc3F)c(Cl)nc3ncnn23)CC1` [BAS600, 5-chloro-6-(2,4,6-trifluorophenyl)-7-(4-methylpiperidin-1-yl)[1,2,4]triazolo[1,5-α]pyrimidine]: the “TLB Obsd” value was determined as 26% in assay [1] (setting [3]); 6% in assay [1] (setting [4]); 56% in assay [1] (setting [5]); 20% in assay [1] (setting [6]); 12% in assay [1] (setting [7]); 7% in assay [1] (component (b) alone, 2 ppm). In addition, the “TLB Obsd” value is given as 0% in assay [1] (component (b) alone, 10 ppm); 15% in assay [1] (component (b) alone, 40 ppm); 30% in assay [1] (component (b) alone, 200 ppm); 15% in assay [1] (component (b) alone, 500 ppm). Further, the “CDM Obsd” value in assay [2] (setting [3]) was 47%; in assay [2] (setting [4]) it was 99%; in assay [2] (setting [5]), 100%; in assay [2] (setting [6]), 100%; in assay [2] (setting [7]), 100%; in assay [2] (setting [8]), 0%. Further, the “CDM Obsd” value was 72% in assay [2] (setting [9]); 100% in assay [2] (setting [10]); 100% in assay [2] (component (b) alone 200 ppm (Compound 1 0 ppm)); 0% in assay [2] (component (b) alone, 2 ppm); 99% in assay [2] (component (b) alone, 10 ppm); 100% in assay [2] (component (b) alone, 40 ppm). Besides, the “CDM Obsd” value is listed as 100% in assay [2] (component (b) alone, 200 ppm) and 100% in assay [2] (component (b) alone, 500 ppm).

As to `CO/C=C(/C(=O)OC)c1ccccc1Oc1cc(Oc2ccccc2C#N)ncn1` [azoxystrobin], the “TLB Obsd (disease control rating)” value in assay [1] (component (b) alone 0.08 ppm) is 0%; in assay [1] (component (b) alone 0.4 ppm) it was 16%; in assay [1] (component (b) alone 2 ppm) it was 26%; in assay [1] (component (b) alone 10 ppm) it was 58%; in assay [1] (component (b) alone 40 ppm), 99%. In addition, the “TLB Obsd (observed effect, tomato late blight)” value in assay [1] (component (b) alone, 0.4 ppm) was 29; in assay [1] (component (b) alone, 2 ppm) it was 56; in assay [1] (component (b) alone, 10 ppm) it was 90; in assay [1] (component (b) alone, 40 ppm), 100. The “CDM Obsd (disease control rating)” value in assay [2] (Table B, component (b) alone 0.08 ppm) worked out at 64%; in assay [2] (setting [11]), 80%; in assay [2] (setting [12]), 100%; in assay [2] (setting [13]), 100%; in assay [2] (setting [14]), 100%. For the same molecule, the “CDM Obsd” value in assay [2] (setting [15]) is on record as 26%; in assay [2] (setting [16]), 40%; in assay [2] (setting [8]), 100%; in assay [2] (setting [9]), 100%; in assay [2] (setting [10]) it was 100%. For the same molecule, the “CDM Obsd (observed effect, cucumber downy mildew)” value is on record as 0 in assay [2] (component (b) alone, 0.4 ppm); 70 in assay [2] (component (b) alone, 2 ppm); 100 in assay [2] (component (b) alone, 10 ppm); 100 in assay [2] (component (b) alone, 40 ppm).

With `COc1ccc(C(=CC(=O)N2CCOCC2)c2ccc(Cl)cc2)cc1OC` [dimethomorph], the pest or weed control at 0.08 ppm came to 9% in assay [1] (Phytophthora infestans, read-out: TLB Obsd (disease control rating), Table B, component (b) alone 0.08 ppm); 31% in assay [1] (Phytophthora infestans, read-out: TLB Obsd (observed effect, tomato late blight), component (b) alone, 0.08 ppm); 47% in assay [2] (Pseudoperonospora cubensis, Table B, component (b) alone 0.08 ppm, read-out: CDM Obsd (disease control rating)); 52% in assay [2] (Pseudoperonospora cubensis, component (b) alone, 0.08 ppm, read-out: CDM Obsd (observed effect, cucumber downy mildew)). In addition, the pest or weed control at 0.4 ppm in assay [1] (Phytophthora infestans, read-out: TLB Obsd (disease control rating), Table B, component (b) alone 0.4 ppm) was found to be 9%; in assay [1] (Phytophthora infestans, read-out: TLB Obsd (observed effect, tomato late blight), component (b) alone, 0.4 ppm), 62%; in assay [2] (Pseudoperonospora cubensis, Table B, component (b) alone 0.4 ppm, read-out: CDM Obsd (disease control rating)), 57%; in assay [2] (Pseudoperonospora cubensis, component (b) alone, 0.4 ppm, read-out: CDM Obsd (observed effect, cucumber downy mildew)), 54%. In addition, the pest or weed control at 2 ppm in assay [1] (Phytophthora infestans, read-out: TLB Obsd (disease control rating), Table B, component (b) alone 2 ppm) is 47%; in assay [1] (Phytophthora infestans, read-out: TLB Obsd (observed effect, tomato late blight), component (b) alone, 2 ppm), 95%; in assay [2] (Pseudoperonospora cubensis, Table B, component (b) alone 2 ppm, read-out: CDM Obsd (disease control rating)), 70%; in assay [2] (Pseudoperonospora cubensis, component (b) alone, 2 ppm, read-out: CDM Obsd (observed effect, cucumber downy mildew)) it was 88%. Moreover, the pest or weed control at 10 ppm in assay [1] (Phytophthora infestans, read-out: TLB Obsd (disease control rating), Table B, component (b) alone 10 ppm) amounted to 86%; in assay [1] (Phytophthora infestans, read-out: TLB Obsd (observed effect, tomato late blight), component (b) alone, 10 ppm) it was 88%; in assay [2] (Pseudoperonospora cubensis, Table B, component (b) alone 10 ppm, read-out: CDM Obsd (disease control rating)), 100%; in assay [2] (Pseudoperonospora cubensis, component (b) alone, 10 ppm, read-out: CDM Obsd (observed effect, cucumber downy mildew)) it was 100%. The pest or weed control at 40 ppm stood at 99% in assay [1] (Phytophthora infestans, read-out: TLB Obsd (disease control rating), Table B, component (b) alone 40 ppm); 100% in assay [1] (Phytophthora infestans, read-out: TLB Obsd (observed effect, tomato late blight), component (b) alone, 40 ppm); 100% in assay [2] (Pseudoperonospora cubensis, Table B, component (b) alone 40 ppm, read-out: CDM Obsd (disease control rating)); 100% in assay [2] (Pseudoperonospora cubensis, component (b) alone, 40 ppm, read-out: CDM Obsd (observed effect, cucumber downy mildew)). Moreover, in assay [2] (Pseudoperonospora cubensis, component (b) alone 0.08 ppm (Compound 1 0 ppm), read-out: CDM Obsd), the pest or weed control at 0.08 µg/mL stood at 26%. Also, the pest or weed control at 0.4 µg/mL in assay [2] (setting [17]) was 26%. For the same molecule, the pest or weed control at 2 µg/mL in assay [2] (setting [18]) was determined as 83%. In assay [2] (setting [19]), the pest or weed control at 10 µg/mL is 100%. Besides, the pest or weed control at 40 µg/mL in assay [2] (setting [20]) was 100%.

Regarding benthiovalicarb, the “TLB Obsd (disease control rating)” value is 53% in assay [1] (component (b) alone 0.4 ppm), 100% in assay [1] (component (b) alone 2 ppm), 100% in assay [1] (component (b) alone 10 ppm) and 100% in assay [1] (component (b) alone 40 ppm). The “CDM Obsd (disease control rating)” value turned out to be 90% in assay [2] (setting [11]), 100% in assay [2] (setting [12]), 100% in assay [2] (setting [13]) and 100% in assay [2] (setting [14]). Moreover, the “CDM Obsd” value in assay [2] (setting [15]) stood at 33%; in assay [2] (setting [16]), 86%; in assay [2] (setting [8]), 100%; in assay [2] (setting [9]), 100%; in assay [2] (setting [10]), 100%.

`CON=C(C(=O)OC)c1ccccc1CON=C(C)c1cccc(C(F)(F)F)c1` [trifloxystrobin]: the pest or weed control at 0.4 ppm in assay [1] (Phytophthora infestans, read-out: TLB Obsd (disease control rating), Table C, component (b) alone 0.4 ppm) is 0%; in assay [2] (Pseudoperonospora cubensis, Table C, component (b) alone 0.4 ppm, read-out: CDM Obsd (disease control rating)) it was 47%. The pest or weed control at 2 ppm was 40% in assay [1] (Phytophthora infestans, read-out: TLB Obsd (disease control rating), Table C, component (b) alone 2 ppm); 0% in assay [1] (Phytophthora infestans, read-out: TLB Obsd, component (b) alone, 2 ppm); 47% in assay [2] (Pseudoperonospora cubensis, Table C, component (b) alone 2 ppm, read-out: CDM Obsd (disease control rating)); 0% in assay [2] (Pseudoperonospora cubensis, component (b) alone, 2 ppm, read-out: CDM Obsd). Further, the pest or weed control at 10 ppm in assay [1] (Phytophthora infestans, read-out: TLB Obsd (disease control rating), Table C, component (b) alone 10 ppm) was 26%; in assay [1] (Phytophthora infestans, read-out: TLB Obsd, component (b) alone, 10 ppm), 72%; in assay [2] (Pseudoperonospora cubensis, Table C, component (b) alone 10 ppm, read-out: CDM Obsd (disease control rating)), 58%; in assay [2] (Pseudoperonospora cubensis, component (b) alone, 10 ppm, read-out: CDM Obsd) it was 16%. Besides, the pest or weed control at 40 ppm in assay [1] (Phytophthora infestans, read-out: TLB Obsd (disease control rating), Table C, component (b) alone 40 ppm) was 45%; in assay [1] (Phytophthora infestans, read-out: TLB Obsd, component (b) alone, 40 ppm), 38%; in assay [2] (Pseudoperonospora cubensis, Table C, component (b) alone 40 ppm, read-out: CDM Obsd (disease control rating)), 94%; in assay [2] (Pseudoperonospora cubensis, component (b) alone, 40 ppm, read-out: CDM Obsd) it was 89%. Moreover, the pest or weed control at 200 ppm stood at 53% in assay [1] (Phytophthora infestans, read-out: TLB Obsd (disease control rating), Table C, component (b) alone 200 ppm); 25% in assay [1] (Phytophthora infestans, read-out: TLB Obsd, component (b) alone, 200 ppm); 100% in assay [2] (Pseudoperonospora cubensis, Table C, component (b) alone 200 ppm, read-out: CDM Obsd (disease control rating)); 100% in assay [2] (Pseudoperonospora cubensis, component (b) alone, 200 ppm, read-out: CDM Obsd). Further, the pest or weed control at 0.04 ppm in assay [1] (Phytophthora infestans, read-out: TLB Obsd, component (b) alone, 0.04 ppm) is 0%; in assay [2] (Pseudoperonospora cubensis, component (b) alone, 0.04 ppm, read-out: CDM Obsd), 0%. Besides, the pest or weed control at 0.4 µg/mL in assay [2] (setting [17]) stood at 47%. In assay [2] (setting [18]), the pest or weed control at 2 µg/mL was found to be 47%. Also, the pest or weed control at 10 µg/mL in assay [2] (setting [19]) is 57%. In addition, the pest or weed control at 40 µg/mL in assay [2] (setting [20]) came out at 93%. Moreover, in assay [2] (Pseudoperonospora cubensis, component (b) alone 200 ppm (Compound 1 0 ppm), read-out: CDM Obsd), the pest or weed control at 200 µg/mL was found to be 100%.
